Legend:
[1] = system: human cytomegalovirus (HCMV) (strain AD 169); test: plaque-reduction assay, HCMV in human embryonic fibroblasts; format: cell-based; settings: Human betaherpesvirus 5, Fibroblast; HCMV strain AD 169, human embryonic fibroblasts, 7 to 10 days
Description: (§1) Compounds prepared in some of the previous Examples are tested for antiviral activity against herpes simplex virus type 1 (HSV-1) (strain 17i) and human cytomegalovirus (HCMV) (strain AD 169) in vitro. Aqueous solutions of the compounds are prepared at concentrations between 10 mM and 50 mM. The solutions are stored at -70° C. after preparation and thawed prior to use in the antiviral assays. After thawing, the solutions are diluted to the appropriate concentration in the cell-culturemedium without prior filtration.
(§2) In a procedure similar to that described by Tyros et al, J. Antimicrob. Chemother., 8, 65-72 (1981), cell monolayers are infected with 20-200 plaque forming units and after virus adsorption the inoculum is replaced by maintenance medium containing different concentrations of the compound under investigation. Virus spread is prevented by the incorporation of 0.5% low gelling temperature agarose. At the end of a set period (2 or 3 days for HSV and 7 to 10 days for HCMV) monolayers are fixed, stained with methylene blue and plaque numbers determined.

[2] = system: herpes simplex virus type 1 (HSV-1) (strain 17i); test: plaque-reduction assay, HSV-1 in Vero cells; format: cell-based; settings: Human alphaherpesvirus 1, 2 or 3 days
Description: as §1, §2

[3] = system: complementary RNA sequences; format: binding; settings: for Tm: pH 7; for ΔTm/mod: pH 7.0

| Molecule | IC50 [1] [µM] | IC50 [2] [µM] | Tm [3] [°C] | ΔTm/mod [3] [°C] |
| --- | --- | --- | --- | --- |
| CCOP(=O)(CC[C@H]1O[C@@H](n2cc(C)c(=O)[nH]c2=O)C[C@@H]1OC(=O)c1ccccc1)C[C@H]1C[C@H](n2cc(C)c(=O)[nH]c2=O)O[C@@H]1CO[Si](c1ccccc1)(c1ccccc1)C(C)(C)C (stereo partly drawn) [Compound 13] | 1 to 10 | 5 to 50 | – | – |
| CCOP(=O)(CC[C@H]1O[C@@H](n2cc(C)c(=O)[nH]c2=O)C[C@@H]1OC(=O)c1ccccc1)C[C@H]1C[C@H](n2cc(C)c(=O)[nH]c2=O)O[C@@H]1CO (stereo partly drawn) [Compound 15] | > 2 | > 5 | – | – |
| Example 88: TTT T*TC TCT CTC TCT, T*T unit derived from Compound 81 (TTTTTCTCTCTCTCT; one T*T dimer with modified linkage from Compound 81, further chemistry not given here) | – | – | 46.8 | -2.2 |
| Example 97: CTC GTA CT*T T*TC CGG TCC, T*T units derived from Compound 81A (CTCGTACTTTTCCGGTCC; T*T modified units from Compound 81A, chemistry not fully specified) | – | – | 57.9 | -1.8 |
| Example 98: CTC GTA CT*T T*TC CGG TCC, T*T units derived from Compound 81B (CTCGTACTTTTCCGGTCC; T*T modified units from Compound 81B, chemistry not fully specified) | – | – | 58.8 | -1.3 |
| Example 87: TTT T*TC TCT CTC TCT, T*T unit derived from Compound 81 (hydrolysed) (TTTTTCTCTCTCTCT; T*T modified dimer unit from Compound 81 (hydrolysed), chemistry not fully specified) | – | – | 45.7 | -2.8 |
| Example 90: TTT T*TC TCT CTC TCT, T*T unit derived from Compound 81B (TTTTTCTCTCTCTCT; one T*T dimer with modified linkage from Compound 81B, further chemistry not given here) | – | – | 47.2 | -1.3 |
| CCOP(=O)(CC[C@H]1O[C@@H](n2cc(C)c(=O)[nH]c2=O)C[C@@H]1O)C[C@H]1C[C@H](n2cc(C)c(=O)[nH]c2=O)O[C@@H]1CO[Si](c1ccccc1)(c1ccccc1)C(C)(C)C (stereo partly drawn) [Compound 14] | > 200 | 20 to 200 | – | – |
| Example 89: TTT T*TC TCT CTC TCT, T*T unit derived from Compound 81A (TTTTTCTCTCTCTCT; one T*T dimer with modified linkage from Compound 81A, further chemistry not given here) | – | – | 45.7 | -3.3 |
| Example 96: CTC GTA CT*T T*TC CGG TCC, T*T units derived from Compound 81 (CTCGTACTTTTCCGGTCC; T*T modified units from Compound 81, chemistry not fully specified) | – | – | 58.5 | -1.5 |
| Example 95: CTC GTA CT*T T*TC CGG TCC, T*T units derived from Compound 81 (hydrolysed) (CTCGTACTTTTCCGGTCC; two T*T dimers with modified linkage from hydrolysed Compound 81, further chemistry not given here) | – | – | 58.2 | -1.6 |
| Example 99: GCG T*TT *TT*T T*TT *TGC G, T*T indicating a unit derived from Compound 81 (hydrolysed) (GCGTTTTTTTTTTGCG; several T*T modified linkages from hydrolysed Compound 81, further chemistry not given here) | – | – | 39.6 | -1.8 |

From patent US5466677A, “Dinucleoside phosphinates and their pharmaceutical compositions” (Ciba-Geigy Corporation, priority 1993, dated 1995)
